Reference: ChEMBL document CHEMBL1201862, “PubChem BioAssay data set” (2004)
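Growth conditions: 96-well plates. Treatment: test compound, 48 hours, 5 concentrations. Analysis: linear interpolation between bracketing concentrations; unreached endpoints set to highest concentration. GI50: concentration for 50% inhibition of growth.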 Calls of active or inactive are those of the source. No stated cut-off is given here; in the data, active = GI50 up to about 1.1 µM and inactive = higher.

Legend:
Assay in all cases: growth of human tumour cells (NCI), 48 h
SNB-19 = tested on: SNB-19
OVCAR-3 = tested on: OVCAR-3
DU-145 = tested on: DU-145
HCC 2998 = tested on: HCC 2998
RXF 393 = tested on: RXF 393
UACC-257 = tested on: UACC-257
NCI-H522 = tested on: NCI-H522
SNB-75 = tested on: SNB-75
HCT-116 = tested on: HCT-116
HL-60 = tested on: HL-60
SK-MEL-28 = tested on: SK-MEL-28
SW-620 = tested on: SW-620
NCI-H226 = tested on: NCI-H226
OVCAR-4 = tested on: OVCAR-4
RPMI-8226 = tested on: RPMI-8226
EKVX = tested on: EKVX
SF-268 = tested on: SF-268
MDA-MB-435 = tested on: MDA-MB-435
M14 = tested on: M14
SK-OV-3 = tested on: SK-OV-3
COLO 205 = tested on: COLO 205
ACHN = tested on: ACHN
HCT-15 = tested on: HCT-15
KM12 = tested on: KM12
PC-3 = tested on: PC-3
OVCAR-8 = tested on: OVCAR-8
TK-10 = tested on: TK-10
MCF7 = tested on: MCF7
786-0 = tested on: 786-0
HOP-62 = tested on: HOP-62
NCI-H23 = tested on: NCI-H23
IGROV-1 = tested on: IGROV-1
CAKI-1 = tested on: CAKI-1
HT-29 = tested on: HT-29
T47D = tested on: T47D
MOLT-4 = tested on: MOLT-4
SF-295 = tested on: SF-295
MDA-MB-231 = tested on: MDA-MB-231
NCI-H460 = tested on: NCI-H460
HOP-92 = tested on: HOP-92
SF-539 = tested on: SF-539
UACC-62 = tested on: UACC-62
NCI/ADR-RES = tested on: NCI/ADR-RES
A498 = tested on: A498
SK-MEL-2 = tested on: SK-MEL-2
SK-MEL-5 = tested on: SK-MEL-5
UO-31 = tested on: UO-31
SN12C = tested on: SN12C
CCRF-CEM = tested on: CCRF-CEM
A549 = tested on: A549
SR = tested on: SR
Hs-578T = tested on: Hs-578T
U-251 = tested on: U-251
BT-549 = tested on: BT-549
K562 = tested on: K562
OVCAR-5 = tested on: OVCAR-5
Malme-3M = tested on: Malme-3M
LOX IMVI = tested on: LOX IMVI

O=C(Cc1ccccc1CCO)NCCc1ccccc1
GI50 (SNB-19): > 100 µM (inactive)
GI50 (OVCAR-3): > 100 µM (inactive)
GI50 (DU-145): > 100 µM (inactive)
GI50 (HCC 2998): > 100 µM (inactive)
GI50 (RXF 393): > 100 µM (inactive)
GI50 (UACC-257): > 100 µM (inactive)
GI50 (NCI-H522): > 100 µM (inactive)
GI50 (SNB-75): > 100 µM (inactive)
GI50 (HCT-116): > 100 µM (inactive)
GI50 (HL-60): > 100 µM (inactive)
GI50 (SK-MEL-28): > 100 µM (inactive)
GI50 (SW-620): > 100 µM (inactive)
GI50 (NCI-H226): > 100 µM (inactive)
GI50 (OVCAR-4): > 100 µM (inactive)
GI50 (RPMI-8226): > 100 µM (inactive)
GI50 (EKVX): > 100 µM (inactive)
GI50 (SF-268): > 100 µM (inactive)
GI50 (MDA-MB-435): > 100 µM (inactive)
GI50 (M14): > 100 µM (inactive)
GI50 (SK-OV-3): > 100 µM (inactive)
GI50 (COLO 205): > 100 µM (inactive)
GI50 (ACHN): > 100 µM (inactive)
GI50 (HCT-15): > 100 µM
GI50 (KM12): > 100 µM (inactive)
GI50 (PC-3): > 100 µM (inactive)
GI50 (OVCAR-8): > 100 µM (inactive)
GI50 (TK-10): > 100 µM (inactive)
GI50 (MCF7): > 100 µM (inactive)
GI50 (786-0): > 100 µM (inactive)
GI50 (HOP-62): > 100 µM (inactive)
GI50 (NCI-H23): > 100 µM (inactive)
GI50 (IGROV-1): > 100 µM (inactive)
GI50 (CAKI-1): > 100 µM (inactive)
GI50 (HT-29): > 100 µM (inactive)
GI50 (T47D): > 100 µM (inactive)
GI50 (MOLT-4): > 100 µM (inactive)
GI50 (SF-295): > 100 µM (inactive)
GI50 (MDA-MB-231): > 100 µM (inactive)
GI50 (NCI-H460): > 100 µM (inactive)
GI50 (HOP-92): > 100 µM (inactive)
GI50 (SF-539): > 100 µM (inactive)
GI50 (UACC-62): > 100 µM (inactive)
GI50 (NCI/ADR-RES): > 100 µM (inactive)
GI50 (A498): > 100 µM (inactive)
GI50 (SK-MEL-2): > 100 µM (inactive)
GI50 (SK-MEL-5): > 100 µM (inactive)
GI50 (UO-31): 41.8 µM (inactive)
GI50 (SN12C): > 100 µM (inactive)
GI50 (CCRF-CEM): > 100 µM (inactive)
GI50 (A549): > 100 µM (inactive)
GI50 (SR): > 100 µM (inactive)
GI50 (Hs-578T): > 100 µM (inactive)
GI50 (U-251): > 100 µM (inactive)
GI50 (BT-549): > 100 µM (inactive)
GI50 (K562): > 100 µM (inactive)
GI50 (OVCAR-5): > 100 µM (inactive)

CN(C)CCNC(=O)c1cccc2nc3c(C(=O)NCCN(C)C)cccc3nc12
GI50 (SNB-19): 1.11 µM (active)
GI50 (OVCAR-3): 1.7 µM (inactive)
GI50 (DU-145): 1.37 µM (inactive)
GI50 (HCC 2998): 1.15 µM (inactive)
GI50 (RXF 393): 1.44 µM (inactive)
GI50 (UACC-257): 2.14 µM (inactive)
GI50 (NCI-H522): 0.458 µM (active)
GI50 (SNB-75): 2.63 µM (inactive)
GI50 (HCT-116): 0.603 µM (active)
GI50 (HL-60): 0.713 µM (active)
GI50 (SK-MEL-28): 2.03 µM (inactive)
GI50 (SW-620): 0.462 µM (active)
GI50 (NCI-H226): 1.46 µM (inactive)
GI50 (OVCAR-4): 0.589 µM (active)
GI50 (RPMI-8226): 1.19 µM (inactive)
GI50 (EKVX): 1.49 µM (inactive)
GI50 (SF-268): 0.782 µM (active)
GI50 (MDA-MB-435): 1.21 µM (inactive)
GI50 (M14): 1.51 µM (inactive)
GI50 (Malme-3M): 1.77 µM (inactive)
GI50 (COLO 205): 0.612 µM (active)
GI50 (ACHN): 0.668 µM (active)
GI50 (HCT-15): 2.98 µM
GI50 (KM12): 1.26 µM (inactive)
GI50 (PC-3): 0.76 µM (active)
GI50 (OVCAR-8): 0.421 µM (active)
GI50 (TK-10): 1.86 µM (inactive)
GI50 (MCF7): 0.706 µM (active)
GI50 (786-0): 0.393 µM (active)
GI50 (HOP-62): 1.31 µM (inactive)
GI50 (NCI-H23): 1.19 µM (inactive)
GI50 (IGROV-1): 1.78 µM (inactive)
GI50 (CAKI-1): 2.14 µM (inactive)
GI50 (HT-29): 0.321 µM (active)
GI50 (T47D): 4.34 µM (inactive)
GI50 (MOLT-4): 0.43 µM (active)
GI50 (SF-295): 1.31 µM (inactive)
GI50 (MDA-MB-231): 1.14 µM (inactive)
GI50 (LOX IMVI): 0.366 µM (active)
GI50 (NCI-H460): 0.82 µM (active)
GI50 (HOP-92): 2.9 µM (inactive)
GI50 (SF-539): 1.92 µM (inactive)
GI50 (UACC-62): 2.9 µM (inactive)
GI50 (NCI/ADR-RES): 5.15 µM (inactive)
GI50 (A498): 1.85 µM (inactive)
GI50 (SK-MEL-2): 1.77 µM (inactive)
GI50 (SK-MEL-5): 1.56 µM (inactive)
GI50 (UO-31): 1.41 µM (inactive)
GI50 (SN12C): 0.918 µM (active)
GI50 (CCRF-CEM): 0.59 µM (active)
GI50 (A549): 1.57 µM (inactive)
GI50 (SR): 0.368 µM (active)
GI50 (Hs-578T): 1.89 µM (inactive)
GI50 (U-251): 0.632 µM (active)
GI50 (BT-549): 3.18 µM (inactive)
GI50 (K562): 0.621 µM (active)
GI50 (OVCAR-5): 2.3 µM (inactive)
